In patent publication US9150530B2, “Esters of 4, 9-dihydroxy-naphtho [2, 3-b] furans for disease therapies” (Zhoushan Haizhongzhou Xinsheng Pharmaceuticals Co., Ltd., priority 2011, dated 2015):

Assays:
[1] = test system: A549; test: Effect of drug incubation time on biological activity, MTT, A549; format: cell-based; details: A549 (significant NQ01 activity)
Procedure: (§1) Cell Viability Determination: Popular MTT method (Archives of Biochemistry and Biophysics, 1993, 303: 474-482) was used to screen the in vitro effects of the invented drugs. Briefly, 5000 to 10000 cells were inoculated per well in a 96-well plate. After overnight incubation, drug was added to the wells at final concentration of 10 μM, […], 2.5 μM, 1.25 μM, or 1 μM, 0.75 μM, 0.5 μM and 0.25 μM in complete culture medium. Each dose level covered 4 equivalent wells. After 48 hour incubation, one tenth volume of 5 mg/mL MTT (thiazolyl blue tetrazolium bromide, Sigma-Aldrich) stock solution was added, and incubation was continued for 2 hours. Then medium was removed and 100 μL of isopropanol solution comprising 86% isopropanol, 4% aqueous 1 N HCl and 10% aqueous SDS solution (10% in concentration) was added. The absorbance of each well at 570 nm wavelength was measured by a micro-plate reader after gentle shaking for 20 minutes. Drug concentrations of 50% cell viability (IC50) were calculated by LOGIT method.
(§2) Effect of Drug Incubation Time on the Biological Activities of Compound XIII (FIG. 7): MTT assay was used for this experiment. Same procedure as described in “Cell Viability Determination” section. Briefly, cancer cells were inoculated on 96 well culture plates. […] The viability of cells at each well was read out using MTT method.

[2] = test system: Panc-1; test: Effect of NQ01 inhibitor (dicumarol) on biological activity, MTT, Panc-1; format: cell-based; details: Panc-1 (no significant NQ01 enzymatic activity); dicumarol 40 μM; 48 hr
Procedure: as §1
(§3) Effect of NQ01 Inhibitor (Dicumarol) on the Biological Activities of 2-acetyl-4,9-diacetoxy-naphtho[2,3-b]furan and Compound XIII (Part B and C of FIG. 4):MTT assay was used for this experiment. Same procedure as described in “Cell Viability Determination” section. […] The viability of cells at each well was read out after 48 hr incubation in cell culture incubator.

[3] = test system: H1299; test: Effect of drug incubation time on biological activity, MTT, H1299; format: cell-based; details: H1299 (no NQ01 activity)
Procedure: as §1, §2

[4] = test system: Panc 1; test: Effect of drug incubation time on biological activity, MTT, Panc 1; format: cell-based; details: Panc 1 (no NQ01 activity)
Procedure: as §1, §2

[5] = Metabolism in biological fluid (human whole blood, cancer cell lysate, liver microsomes, mouse oral uptake), HPLC; format: in vitro ADME; details: liver microsomes or mouse oral uptake system, 20 μM, 37° C.
Procedure: Second, a major metabolite found after incubation of compound I, III, IV, VI or XIII in biological fluid, such as human whole blood, or cancer cell lysate, or liver microsomes, or mouse oral uptake system, is compound XII (FIG. 3). Similarly, a major metabolite found after incubation of compound V, VII or XIV in biological fluid is 2-(1-hydroxy-n-propyl)-naphtho[2,3-b]furan-4,9-dione (data not shown). Reduction of the position 2 substituent carbonyl group is part of quinone redox reaction as evidenced by the β-lapachone effect on the formation of compound XII in the compound XIII incubation mixture of human whole blood (part D of FIG. 3). The possible reaction mechanism is proposed as shown in scheme 7, in which the two electron reduction could be NQ01 catalyzed reduction or two successive cytochrome b5 reductase or p450 reductase catalyzed reaction. As substrate of these enzymes, β-lapachone could compete for the two electron or single electron reaction and thus reduced formation of the metabolism product.
Crystalline or amorphous solid of compound was mixed with excipient and suspended in 0.5% carboxymethylcellulose (CMC) solution in a mortar. Then the mixture was orally administered into ICR mouse at the predetermined dosage. At the predetermined time point, blood was drawn from the mouse and stored in the vial containing heparin. The blood samples were centrifuged at 6,000 rpm for 10 min, and plasmas were separated. To each plasma sample, 9 times volume of acetonitrile/methyl trifluoromethanesulfonate (1000:1) or acetonitrile/concentrated HCl (1000:1) was added. The resulting mixtures were vortexed and incubated in dry ice for 30 minutes or in −20° C. freezer for 3 hours, then centrifuged, and supernatants were separated for HPLC analysis using gradient B.
The biological systems for in vitro metabolism study include: human whole blood stabilized with sodium citrate; cancer cell lysate (obtained using freeze-thaw method, 10 mg/ml in protein concentration for use); liver microsomes with NADPH generation system (prepared according to the protocol provided by iPhase Pharma, Beijing, China);
10 mM of a compound of formula I or its analog or compound XIII in DMSO (however, compound VI was in DMF) was added into the biological system to a final concentration of 20 μM. The mixtures were incubated at 37° C. for predetermined time. To each sample, then 9 times volume of acetonitrile was added. The resulting mixtures were vortexed and incubated in dry ice for 30 minutes or in −20° C. freezer for 3 hours, then centrifuged, and supernatants were separated for HPLC analysis using gradient B.

[6] = test system: DLD1; test: Effect of NQ01 inhibitor (dicumarol) on biological activity, MTT, DLD1; format: cell-based; details: DLD1 (significant NQ01 enzymatic activity); dicumarol 40 μM; 48 hr
Procedure: as §1, §3

[7] = test system: DLD1; test: Effect of drug incubation time on biological activity, MTT, DLD1; format: cell-based; details: DLD1 (significant NQ01 activity)
Procedure: as §1, §2

In the case of `CC(=O)c1cc2c(o1)C(=O)c1ccccc1C2=O` [compound XIII, 2-acetyl-naphtho[2,3-b]furan-4,9-dione], the “Cell growth inhibition, full time treatment versus 4 hour treatment” value [1] is reported as “made no significant difference in cell growth inhibition”, the “Dicumarol effect on anticancer activity” value [2] is reported as “dicumarol showed little effect” and the “Cell growth inhibition, full time treatment versus 4 hour treatment” value [3] is reported as “full time treatment with compound XIII caused much higher cell growth inhibition than 4 hour treatment”. The “Cell growth inhibition, full time treatment versus 4 hour treatment” value [4] was “full time treatment with compound XIII caused much higher cell growth inhibition than 4 hour treatment”, the “Major metabolite found after incubation in biological fluid” value [5] was “compound XII” and the “Dicumarol effect on anticancer activity” value [6] was “dicumarol attenuates anticancer activities”. For the same compound, the “Cell growth inhibition, full time treatment versus 4 hour treatment” value [7] was “made no significant difference in cell growth inhibition”.
